{"source": "patent US10815219B2", "about": "“2,4-diaminoquinazoline derivatives for inhibiting endoplasmic reticulum (ER) stress” (The Board of Regents of the University of Oklahoma, priority 2017, dated 2020)", "key": {"Bip and GRP94 mRNA": {"test_system": "Bip and GRP94 mRNA", "assay": "qRT-PCR of Bip and GRP94 in Tm-treated INS-1 cells", "format": "cell-based, rat", "details": "Tm 0.1 μg/mL, 9c 20 μM, FIG. 7A, B", "protocol": "We then asked whether 9c affects the activation of ATF6 in β cells under ER stress. Activated ATF6 acts as a homodimer or as an ATF6-XBP1s heterodimer to control the up-regulation of select UPR target genes including the chaperone proteins BiP and GRP94. We evaluated the effect of 9c on the mRNA levels of chaperones Bip and GRP94 in β cells in the presence of Tm.\n(§1) INS-1 cells were seeded at 4×10^5 cells/well in 6-well plates and treated with compounds for the indicated times. Total RNA was extracted using TRIzol reagent (Invitrogen, Carlsbad, Calif.) according to the manufacturer's protocol, and 2 μg of total RNA was reverse transcribed using a Superscript kit (Invitrogen). Real-time PCR was performed in 96-well format using SYBR Select Master Mix (Applied Biosystems, Foster City, Calif.) with an ABI 7500 PCR system (Applied Biosystems). The primer sequences used are shown in U.S. Ser. No. 62/542,408, Aug. 8, […]."}, "primary human islets": {"test_system": "primary human islets", "assay": "Glucose-stimulated insulin secretion in Tm-treated primary human islets", "format": "cell-based", "details": "Tm 1 μg/mL, 48 h, 20 mM glucose, FIG. 9C", "source_text": "We determined whether 9c suppresses the apoptosis of primary human β cells induced by Tm treatment as assessed by TUNEL, which detects fragmentation of DNA, a marker of apoptotic cell death. […] Next, we investigated whether 9c restored the Tm-induced insulin secretion defect. […] ER stress induces activation of three branches of UPR (PERK, IRE1α, and ATF6), leading to up-regulation of ATF4, XBP1s, Bip, […], CHOP and eventual activation caspase 3 and cell apoptosis, while diminishing the expression of PDX1, MAFA and insulin genes, leading to β cell dysfunction. Compound 9c protects β cell against ER stress-mediated dysfunction and death by down-regulating ATF4, XBP1s, Bip, GRP94, CHOP, and caspase 3 and up-regulating PDX1, MAFA and insulin genes.\n(§2) INS-1 or primary human islet cells were plated in 96-well plates. The second day, Tm and compound 9c were added and maintained for 24 h (INS-1) or 48 h (human islets). […] The secreted insulin was measured with insulin ELISA kits (for mouse insulin from Millipore and for human insulin from LifeTech). Cells were lysed with RIPA buffer (50 mM Tris HCl pH 7.4, 1% NP-40, 0.25% sodium deoxycholate, 150 mM NaCl), and total cellular protein was determined with a Bradford protein assay. […]"}, "INS-1 cells [1]": {"test_system": "INS-1 cells", "assay": "INS-1 cell viability after BFA treatment (CellTiter-Glo)", "format": "cell-based, rat", "details": "BFA 0.2 μg/mL, 9c 20 μM, 72 h, FIG. 3D", "source_text": "(§3) To rule out the possibility of an ATP-specific (rather than viability) effect of the compounds, we used the MTT assay, which measures the activity of NAD(P)H-dependent cellular oxidoreductase enzymes, as an orthogonal method to measure cell viability. […] To confirm that the protective effect of 9c on β cells is not INS-1 cell-specific, another β cell line, βTC6, was used. […] To determine whether the protective effect of 9c on β cells is specific to Tm-induced stress, we used another ER stressor, BFA, which inhibits a key guanine nucleotide exchange factor essential for the transport of proteins from the ER to the Golgi, to treat INS-1 cells.\nINS-1 cells or βTC6 cells were seeded at 3×10^3 cells/well in a 384-well plate and treated with compounds at the indicated concentrations. After 3 d treatment, the medium was aspirated and 20 μL/well of CellTiter-Glo reagent (Promega, WI, USA) was added for the detection of intracellular ATP levels. Cell viability was measured with an EnVision multilabel plate reader (PerkinElmer, MA, USA)."}, "ATF4 and CHOP mRNA": {"test_system": "ATF4 and CHOP mRNA", "assay": "qRT-PCR of ATF4 and CHOP in Tm-treated INS-1 cells", "format": "cell-based, rat", "details": "Tm 0.1 μg/mL, 9c 20 μM, FIG. 8A, B", "source_text": "We then determined the effect of 9c on the activation of the PERK pathway in β cells under ER stress. Activated PERK phosphorylates eukaryotic translation initiator factor 2a (eIF2α), which in turn attenuates general protein synthesis to relieve ER load. EIF2α phosphorylation also allows the selective translation of ATF4 mRNA, which encodes a transcription factor that induces the expression of the pro-apoptotic gene C/EBP-homologous protein (CHOP). Thus, we used ATF4 and CHOP expression levels as markers of PERK pathway activation. […] Together, our results that 9c inhibited the ER stress-mediated activation of all three UPR pathways indicate that 9c protects β cell survival by alleviating ER stress.\nas §1"}, "INS-1 cells [2]": {"test_system": "INS-1 cells", "assay": "Glucose-stimulated insulin secretion in Tm-treated INS-1 cells", "format": "cell-based, rat", "details": "Tm 0.1 μg/mL, 24 h, 25 mM glucose, FIG. 5E", "source_text": "(§4) ER stress also impairs the most important function of β cells: the biosynthesis and secretion of insulin. Multiple steps of insulin synthesis and secretion are impaired under ER stress; they include insulin gene transcription, insulin mRNA stability, protein translation, and the insulin protein secretory process. First, we examined whether compound 9c could rescue Tm-suppressed mRNA levels of insulin genes. […] Second, we examined whether compound 9c affects the expression of β cell transcription factors PDX1 and MafA, which control β cell identity and the expression of insulin genes. Chronic exposure to supraphysiologic concentrations of glucose and its associated ER stress cause the down-regulation of expression of PDX1 and MafA. Consistent with this notion, Tm decreased the levels of PDX1 and MafA mRNA expression levels in INS-1 cells. […] Next, we explored whether compound 9c re-establishes Tm-impaired glucose-stimulated insulin secretion (GSIS).\nas §2, with “plates.” for “plates. The second day, Tm and compound 9c were added and maintained for 24 h (INS-1) or 48 h (human islets).”"}, "INS-1 cells [3]": {"test_system": "INS-1 cells", "assay": "MTT viability assay, INS-1 cells treated with Tm", "format": "cell-based, rat", "details": "Tm 0.1 μg/mL, 72 h, FIG. 3A", "source_text": "as §3\nINS-1 cells or βTC6 cells were seeded at 3×10^3 cells/well in a 384-well plate and treated with compounds at the indicated concentrations. After 3 d treatment, the medium was aspirated and 10 μl of MTT reagent (Cayman Chemical, MI, USA, prepared according to manufacturer's instruction) to each well was added and mixed gently for one minute on an orbital shaker. The cells were then incubated for three hours at 37° C. in a CO2 incubator. After incubation, add 100 μl of crystal dissolving solution to each well, and incubate for 4 hours in a 37° C. CO2 incubator. Viability will be measured for the absorbance to each sample at 570 nm using EnVision multilabel plate reader (PerkinElmer, MA, USA)."}, "INS1 and INS2 mRNA": {"test_system": "INS1 and INS2 mRNA", "assay": "qRT-PCR of insulin genes in Tm-treated INS-1 cells", "format": "cell-based, rat", "details": "Tm 0.1 μg/mL, 9c 20 μM, 24 h, FIG. 5A, B", "source_text": "as §4\nINS-1 cells were seeded at 4×10^5 cells/well in 6-well plates and treated with compounds for the indicated times. Total RNA was extracted using TRIzol reagent (Invitrogen, Carlsbad, Calif.) according to the manufacturer's protocol, and 2 μg of total RNA was reverse transcribed using a Superscript kit (Invitrogen). […]"}}}
{"smiles": "COc1ccc(CNc2nc(N3CCCCC3CO)nc3ccccc23)cc1", "note": "(racemic) [Compound 9c, (1-(4-((4-methoxybenzyl)amino)quinazolin-2-yl)piperidin-2-yl)methanol]", "values": [{"measurement": "Bip and GRP94 mRNA levels", "setting": "Bip and GRP94 mRNA", "value": "almost completely suppressed"}, {"measurement": "glucose-stimulated insulin secretion (GSIS)", "setting": "primary human islets", "value": "significantly reversed this effect and restored the Tm-impaired GSIS"}, {"measurement": "viability of INS-1 cells against BFA", "setting": "INS-1 cells [1]", "value": "protected INS-1 cells against BFA"}, {"measurement": "ATF4 and CHOP mRNA levels", "setting": "ATF4 and CHOP mRNA", "value": "decrease in both their levels"}, {"measurement": "glucose-stimulated insulin secretion (GSIS)", "setting": "INS-1 cells [2]", "value": "significantly rescued the GSIS"}, {"measurement": "viability of INS-1 cells (MTT)", "setting": "INS-1 cells [3]", "value": "increase in viability of INS-1 cells"}, {"measurement": "mRNA levels of insulin genes INS1 and INS2", "setting": "INS1 and INS2 mRNA", "value": "completely rescued"}]}
